The text below walks through data of patent publication US6949522B2, “β-2′- or 3′-halonucleosides” (Pharmasset, Inc., priority 2001, dated 2005).

By EC90 is commonly meant the concentration needed for an effect of 90%. A low value points to greater potency. Broadly, the IC50 is the concentration that inhibits the measured activity by half.

For series [1], the system named is mitochondrial cytochrome C oxidase subunit II (COXII) gene. Type of series: cell-based, human. The note with it: HepG2, 10 μM, 7 days; for COXIINrDNA (range) relative to control: COXII DNA normalized to rDNA. The text has this: The Q-RT-PCR technology was also used to evaluate potential mitochondrial γ-DNA polymerase inhibition by the compounds of the present invention in relevant human cells. […] Since active nucleoside compounds in the triphosphate form lack a 3′-OH, thereby stopping virus replication by chain termination, there is a concern that these nucleoside analogues are also substrates for the human DNA polymerase γ, resulting in inhibition of mitochondrial DNA replication and subsequently toxic side effects (11, 19). In an attempt to provide direct quantifiable data on mitochondrial DNA levels intracellular, a Q-PCR technology was designed and relative quantification of COXII DNA levels were calculated using the comparative Ct method. […] Also, in agreement with previous observations, no changes in normalized mitochondrial DNA levels were observed after FIAU and D4T treatment (6, 8, 23).
Low passage number HepG2 cells, obtained from American Tissue Culture Collection (ATCC, Manassas, Va.) were seeded at 5,000 cells/well in collagen-coated 96-well plates. Test compounds were added to the media to obtain a final concentration of 10 μM. On culture day 7, cellular nucleic acids were prepared by using commercially available columns (RNeasy 96 kit, Qiagen). […] The mitochondrial cytochrome C oxidase subunit II (COXII) gene and the β-actin or rRNA gene were amplified from 5 μL with a multiplex Q-PCR protocol using the suitable primers and probes for both target and reference (designed using the Primer Express software, Applied Biosystems); • for COXII. • sense primer 5′-[…]-3′ (Sequence 7); • probe 5′-TET-[…]-TAMRA-3′ (Sequence 8); and • antisense probe 5′-[…]-3′ (Sequence 9); • for exon 3 of β-actin (GenBank E01094): • sense primer 5′-[…]-3′ (Sequence 10); • probe 5′-6FAM-[…]-TAMRA-3′ (Sequnece 11); and • antisense probe 5′-[…]-3′ (Sequence 12).
The rRNA gene primers and probes were purchased from Applied Biosystems. Standard curves using 1-log diluted total HepG2 DNA were linear over more than 5 logs. In addition, efficiencies of target (COXII DNA) and reference (β-actin DNA or rRNA) amplification were approximately equal, because the slope of the ΔCt line (Ct β-actin minus Ct mitochondrial) was less than 0.1 (not shown). Since equal amplification efficiencies were obtained for both genes, the comparative cycle threshold (Ct) method was used to investigate potential inhibition of the mitochondrial DNA polymerase γ. The comparative Ct method uses arithmetic formulas in which the amount of target (COXII gene) is normalized to an endogenous reference (β-actin gene or rRNA gene) and is relative to a calibrator (no drug control at day 7). The arithmetic formula for this approach is given by 2-ΔΔCt (User bulletin # 2, Applied Biosystems).
In order to study the consequences of possible inhibitory effects of these compounds on host DNA polymerases, nuclear and rnitochondrial DNA levels were quantified and compared to no-treatment controls. Cells were incubated for 7 days with 10 μM of each compound, followed by total nucleic acid extractions and multiplex Q-PCR of the rRNA gene and the mitochondrial COXII gene. Nucleic acids from cells exposed to the control compounds were also amplified in multiplex for mitDNA and the β-actin gene. The results are presented in Table 4 using the comparative Ct method.

The next series relates to HIV-1 xxBRU (wild type). The experiment in a line: HIV-1 RT-assay on supernatant of acutely infected human PBM cells, strain xxBRU. The series is classed as cell-based. The note with it: 5 days, RT activity reduced by 90%. The protocol:
Human PBM cells (1×10^6 cells/T25 flask) were PHA stimulated for 2 or 3 days, and infected with either a wild type (LAI and xxBRU) or a 3TC-resistant (xxBRU 184V) HIV-1 strain at 100 TCID50, as previously described (27). The culture was kept for 5 days in presence of test compounds at serial 1-log dilutions. Subsequently, human PBM cells were removed from the culture supernatant by centrifugation (10 minutes, 400×g, 4° C.). This clarified supernatant was tested either in the RT-assay, or in the Q-RT-PCR assay.
Virus particles present in a 1 mL aliquot of culture supernatant were concentrated by high-speed centrifugation (2 hours, 20,000×g, 4° C.). The supernatant was then removed and the virus pellet was dispensed into a 100 μL virus solubilization buffer (VSB: 0.5% Triton X-100; 0.8 M NaCl, 0.5 mM phenylmethylsulfonyl, 20% glycerol, 50 mM Tris.HCl pH 7.8). A 10 μL aliquot of RT-VSB was mixed with 75 μL RT cocktail (60 mM Tris.HCl pH 7.8, 12 mM MgCl2, 6 mM DTT, 6 μg/mL poly (rA)n-oligo (dT)10-12, 1.2 mM dATP, and 80 μCi/mL 3H-TTP) and incubated for 2 hours at 37° C. Subsequently 100 μL of 10% TCA was added, and the total amount of incorporated 3H-TTP was determined.
HIV-1 present in culture supernatant fluids was quantified by two different methodologies: i) the Q-RT-PCR with read-out in log copies/mL; and ii) the endogenous viral RT assay on cell supernatant with read-out in log counts per minute/mL (CPM/mL). Upon addition of antiviral compounds to the culture media, a dose-related decrease in virus production was observed. Although the two methodologies measured different parameters (viral RNA versus active RT enzyme), results were not markedly different from each other. The HIV-1 Q-RT-PCR results were compared with a previously established cell-based antiviral drug evaluation assay (endogenous HIV-1 RT polymerization activity in cell supematant)(27).

The next series relates to HepG2. The experiment in a line: Toxicity assay (MTS/MTT dye), HepG2 cells. The note with it: for Cytotoxicity HepG2 IC30: HepG2, three day-incubation (Table 1); for IC50: read-out: Cytotoxicity HepG2 IC50, HepG2, three day-incubation (Table 3). The protocol:
After a three day-incubation for HepG2, or 5 days for human PBM cells, cell viability and mitochondrial activity were measured in a colorimetric assay using the MTS- or MTT dye method (Promega, Madison, Wis.).
A general note: Tetrazolium dyes change colour on reduction, which living cells bring about.

[2] abbreviates: Human immunodeficiency virus 1, PBMC, 120 h.

`Cc1cn([C@H]2C[C@H](N=[N+]=[N-])[C@@H](CO)O2)c(=O)[nH]c1=O` [AZT, 3′-azido-3′-deoxythymidine, reference compound]: in series [1], the “Average ΔCt ± SD COXII DNA” value came to 0.25 ± 0.13, the “Average ΔΔCt ± SD COXII-rDNA” value is reported as −0.61 ± 0.56 and the “Average ΔΔCt ± SD COXII-β-actin” value turned out to be 0.16 ± 0.44. In the series with HIV-1 xxBRU (wild type) (setting [2]), the EC90 is 0.01 µM.
Turning to `Nc1ccn([C@@H]2CS[C@H](CO)O2)c(=O)n1` [Compound 3TC, (−)-β-2′,3′-dideoxy-3′-thiacytidine, reference compound], the “Cytotoxicity HepG2 IC30” value with HepG2 was above 100 µM. In addition, the “COXIINrDNA (range) relative to control” value in series [1] (2-ΔΔCt) is reported as 1.31 (0.92-1.88). The “COXIINβ-actin DNA (range) relative to control” value in series [1] (COXII DNA normalized to β-actin DNA, 2-ΔΔCt) is recorded as 1.02 (0.75-1.37). Also, in series [1], the “Average ΔCt ± SD COXII DNA” value was determined as 0.08 ± 0.33, the “Average ΔΔCt ± SD COXII-rDNA” value is on record as −0.39 ± 0.50 and the “Average ΔΔCt ± SD COXII-β-actin” value is reported as −0.02 ± 0.43. In the series with HIV-1 xxBRU (wild type) (setting [2]), this compound registered an EC90 of 0.08 µM.
Take `Nc1ccn([C@@H]2C=C(F)[C@H](CO)O2)c(=O)n1` [Compound 10, 1-(2,3-Dideoxy-3-fluoro-β-L-glycero-pent-2-eno-furanosyl)cytosine]: in the series with HepG2, the “Cytotoxicity HepG2 IC30” value was above 100 µM. Also, the “COXIINrDNA (range) relative to control” value in series [1] (2-ΔΔCt) is given as 1.16 (0.81-1.64). Further, in series [1], the “Average ΔCt ± SD COXII DNA” value is recorded as −0.29 ± 0.19 and the “Average ΔΔCt ± SD COXII-rDNA” value is −0.21 ± 0.51. In addition, the EC90 in the series on HIV-1 xxBRU (wild type) (setting [2]) stood at 35.5 µM.
`Nc1ccn([C@@H]2C=C(F)[C@H](CO)O2)c(=O)n1` [Compound 23, 1-(2,3-Didcoxy-3-fluoro-β-L-glycero-pent-2-eno-furanosyl)cytosine]: the IC50 in the series on HepG2 is above 100 µM. For the same compound, the “COXIINrDNA (range) relative to control” value in series [1] (2-ΔΔCt) is on record as 0.78 (0.59-1.04). Moreover, in series [1], the “Average ΔCt ± SD COXII DNA” value is recorded as −0.16 ± 0.17 and the “Average ΔΔCt ± SD COXII-rDNA” value came out at 0.36 ± 0.41. Further, it took 0.14 µM to reach the 90% level with HIV-1 xxBRU (wild type) (EC90).
In the case of `Nc1ccn([C@@H]2S[C@H](CO)C=C2F)c(=O)n1` [Compound D-17, (−)-1-[(1S,4R)-2,3-dideoxy-2,3-didehydro-2-fluoro4-thio-β-D-ribofuranosyl]-cytosine], in the series on HepG2, the “Cytotoxicity HepG2 IC30” value is above 100 µM and the IC50 was above 100 µM. For the same compound, the “COXIINrDNA (range) relative to control” value in series [1] (2-ΔΔCt) was 1.94 (1.31-2.87). In series [1], the “Average ΔCt ± SD COXII DNA” value is −0.14 ± 0.10 and the “Average ΔΔCt ± SD COXII-rDNA” value was −0.96 ± 0.56. The compound further gave an EC90 in the series on HIV-1 xxBRU (wild type) of 5 µM.
Take `Nc1nc(=O)n([C@@H]2S[C@H](CO)C=C2F)cc1F` [Compound D-18, (−)-1-[(1S,4R)-2,3-dideoxy-2,3-didehydro-2-fluoro-4-thio-β-D-ribofuranosyl]-5-fluorocytosine]: in the series on HepG2, the “Cytotoxicity HepG2 IC30” value was above 100 µM and the IC50 is above 100 µM. Also, the “COXIINrDNA (range) relative to control” value in series [1] (2-ΔΔCt) was 0.96 (0.78-1.17). In series [1], the “Average ΔCt ± SD COXII DNA” value is recorded as −0.39 ± 0.43 and the “Average ΔΔCt ± SD COXII-rDNA” value amounted to 0.06 ± 0.29. This compound registered an EC90 in the series with HIV-1 xxBRU (wild type) of 119 µM.
On to `Nc1ccn([C@H]2S[C@@H](CO)C=C2F)c(=O)n1` [Compound L-17, (+)-1-[(1S,4R)-2,3-dideoxy-2,3-didehydro-2-fluoro-4-thio-β-L-ribofuranosyl]-cytosine], for which, in the series with HepG2, the “Cytotoxicity HepG2 IC30” value is above 100 µM and the IC50 was above 100 µM. Further, the “COXIINrDNA (range) relative to control” value in series [1] (2-ΔΔCt) is listed as 1.46 (0.87-2.47). Further, in series [1], the “Average ΔCt ± SD COXII DNA” value is given as −0.05 ± 0.16 and the “Average ΔΔCt ± SD COXII-rDNA” value was −0.55 ± 0.75. For the same compound, the EC90 in the series with HIV-1 xxBRU (wild type) is 1.4 µM.
For the compound `Nc1nc(=O)n([C@H]2S[C@@H](CO)C=C2F)cc1F` [Compound L-18, (+)-1-[(1S,4R)-2,3-dideoxy-2,3-didehydro-2-fluoro-4-thio-β-L-ribofuranosyl]-5-fluoro-cytosine], in the series on HepG2, the “Cytotoxicity HepG2 IC30” value was above 100 µM and the 50% inhibitory concentration (IC50) is above 100 µM. For the same compound, the “COXIINrDNA (range) relative to control” value in series [1] (2-ΔΔCt) is on record as 1.12 (0.76-1.64). Further, in series [1], the “Average ΔCt ± SD COXII DNA” value is recorded as −0.06 ± 0.24 and the “Average ΔΔCt ± SD COXII-rDNA” value is given as −0.16 ± 0.56. In the series on HIV-1 xxBRU (wild type), this compound yielded an EC90 of 1.1 µM.
